Source: US20090311217A1, “3-SUBSTITUTED-1H-INDOLE COMPOUNDS, THEIR USE AS MTOR KINASE AND PI3 KINASE INHIBITORS, AND THEIR SYNTHESES” (priority 2008, published 2009)

How the values were obtained:
human TOR = biological target: T1, human TOR (Homo sapiens, UniProt P42345); assay: mTOR enzyme assay (DELFIA, His6-S6K substrate); format: biochemical; conditions: read-out: mTOR Kinase Avg. IC50
T1 construct: FLAG

PI3K-alpha = PI3K-alpha (Homo sapiens, UniProt P42336); assay: PI3K-alpha fluorescence polarization assay; format: biochemical; conditions: read-out: PI3Kα Avg. IC50
Sequence of PI3K-alpha (P42336 whole entry, species assumed): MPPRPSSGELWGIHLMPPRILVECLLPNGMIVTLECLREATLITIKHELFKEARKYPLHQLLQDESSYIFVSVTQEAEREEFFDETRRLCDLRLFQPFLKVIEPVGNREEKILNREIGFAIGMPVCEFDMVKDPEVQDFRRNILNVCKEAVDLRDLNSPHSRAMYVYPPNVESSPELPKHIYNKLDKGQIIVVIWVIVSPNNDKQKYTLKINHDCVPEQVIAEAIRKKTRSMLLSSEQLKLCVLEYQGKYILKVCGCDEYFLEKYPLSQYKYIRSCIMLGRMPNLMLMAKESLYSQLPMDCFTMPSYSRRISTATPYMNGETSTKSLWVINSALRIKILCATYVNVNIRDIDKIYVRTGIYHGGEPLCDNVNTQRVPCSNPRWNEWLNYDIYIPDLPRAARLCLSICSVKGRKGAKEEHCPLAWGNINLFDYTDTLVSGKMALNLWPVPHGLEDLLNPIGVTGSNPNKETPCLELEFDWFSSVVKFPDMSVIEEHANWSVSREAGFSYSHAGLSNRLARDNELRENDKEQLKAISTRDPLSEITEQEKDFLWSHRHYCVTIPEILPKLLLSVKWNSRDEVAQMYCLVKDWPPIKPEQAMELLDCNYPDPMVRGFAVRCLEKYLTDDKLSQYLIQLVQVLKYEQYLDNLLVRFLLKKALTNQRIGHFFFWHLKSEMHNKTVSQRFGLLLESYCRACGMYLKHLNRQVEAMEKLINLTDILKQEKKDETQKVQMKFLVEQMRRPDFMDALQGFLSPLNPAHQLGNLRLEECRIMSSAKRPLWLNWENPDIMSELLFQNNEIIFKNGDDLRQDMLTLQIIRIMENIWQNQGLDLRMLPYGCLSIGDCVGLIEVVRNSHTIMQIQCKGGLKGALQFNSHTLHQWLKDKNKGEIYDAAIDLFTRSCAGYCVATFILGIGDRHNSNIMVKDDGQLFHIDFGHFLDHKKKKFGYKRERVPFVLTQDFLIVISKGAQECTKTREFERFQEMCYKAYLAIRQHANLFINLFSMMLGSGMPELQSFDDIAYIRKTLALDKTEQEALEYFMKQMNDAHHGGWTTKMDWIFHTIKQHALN
Sequence of PI3K-alpha (P27986 whole entry partner, species assumed): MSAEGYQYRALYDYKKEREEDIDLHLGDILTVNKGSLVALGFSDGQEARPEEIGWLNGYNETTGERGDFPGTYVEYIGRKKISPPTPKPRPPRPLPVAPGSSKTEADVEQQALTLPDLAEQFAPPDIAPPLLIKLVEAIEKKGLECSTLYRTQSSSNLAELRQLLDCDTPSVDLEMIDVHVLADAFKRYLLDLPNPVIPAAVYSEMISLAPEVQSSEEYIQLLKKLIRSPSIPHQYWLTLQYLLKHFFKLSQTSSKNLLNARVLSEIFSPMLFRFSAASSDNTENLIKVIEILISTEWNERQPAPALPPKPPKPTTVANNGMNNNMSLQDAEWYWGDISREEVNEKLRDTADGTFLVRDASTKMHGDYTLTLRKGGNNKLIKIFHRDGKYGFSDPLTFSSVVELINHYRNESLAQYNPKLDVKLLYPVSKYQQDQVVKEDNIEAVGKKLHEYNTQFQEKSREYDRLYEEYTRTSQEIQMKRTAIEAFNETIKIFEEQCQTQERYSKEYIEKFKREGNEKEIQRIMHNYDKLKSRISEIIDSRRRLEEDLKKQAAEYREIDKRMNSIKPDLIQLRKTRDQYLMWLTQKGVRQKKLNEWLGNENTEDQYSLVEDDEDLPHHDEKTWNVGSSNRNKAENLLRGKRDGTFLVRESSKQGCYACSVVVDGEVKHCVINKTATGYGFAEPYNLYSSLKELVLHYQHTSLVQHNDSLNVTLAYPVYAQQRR

| IC50 (human TOR) | IC50 (PI3K-alpha) | SMILES |
| --- | --- | --- |
| 0.39 µM | 1.69 µM | COc1cccc(-c2c(C=C3Oc4cc(O)cc(O)c4C3=O)c3ccccc3n2C)c1 [Example 196, 4,6-dihydroxy-2-{[2-(3-methoxyphenyl)-1-methyl-1H-indol-3-yl]methylene}-1-benzofuran-3(2H)-one] |
| 4.5 µM | 4.87 µM | CN(C)c1ccc(-c2c(C=C3Oc4cc(O)cc(O)c4C3=O)c3ccccc3n2C)cc1 [Example 198, 2-({2-[4-(dimethylamino)phenyl]-1-methyl-1H-indol-3-yl}methylene)-4,6-dihydroxy-1-benzofuran-3(2H)-one] |
| 1.4 µM | 1.56 µM | Cn1c(-c2ccc(F)c(Cl)c2)c(C=C2Oc3cc(O)cc(O)c3C2=O)c2ccccc21 [Example 199, 2-{[2-(3-chloro-4-fluorophenyl)-1-methyl-1H-indol-3-yl]methylene}-4,6-dihydroxy-1-benzofuran-3(2H)-one] |
| 0.3 µM | 1.29 µM | O=C1C(=Cc2c(-c3ccsc3)[nH]c3ccccc23)Oc2cc(O)cc(O)c21 [Example 207, 4,6-dihydroxy-2-{[2-(3-thienyl)-1H-indol-3-yl]methylene}-1-benzofuran-3(2H)-one] |
| 0.3 µM | 0.954 µM | COc1ccc(-c2[nH]c3ccccc3c2C=C2Oc3cc(O)cc(O)c3C2=O)cc1 [Example 208, 4,6-dihydroxy-2-{[2-(4-methoxyphenyl)-1H-indol-3-yl]methylene}-1-benzofuran-3(2H)-one] |
| 0.49 µM | 1.16 µM | COc1cccc(-c2[nH]c3ccccc3c2C=C2Oc3cc(O)cc(O)c3C2=O)c1 [Example 209, 4,6-dihydroxy-2-{[2-(3-methoxyphenyl)-1H-indol-3-yl]methylene}-1-benzofuran-3(2H)-one] |
| 0.59 µM | 1.06 µM | CN(C)c1ccc(-c2[nH]c3ccccc3c2C=C2Oc3cc(O)cc(O)c3C2=O)cc1 [Example 211, 2-({2-[4-(dimethylamino)phenyl]-1H-indol-3-yl}methylene)-4,6-dihydroxy-1-benzofuran-3(2H)-one] |
| 0.64 µM | 1.06 µM | O=C1C(=Cc2c(-c3ccc(F)c(Cl)c3)[nH]c3ccccc23)Oc2cc(O)cc(O)c21 [Example 212, 2-{[2-(3-chloro-4-fluorophenyl)-1H-indol-3-yl]methylene}-4,6-dihydroxy-1-benzofuran-3(2H)-one] |
| 2.55 µM | 4.91 µM | CCCn1c(-c2ccccc2)c(C=C2Oc3cc(O)cc(O)c3C2=O)c2ccccc21 [Example 214, 4,6-dihydroxy-2-[(2-phenyl-1-propyl-1H-indol-3-yl)methylene]-1-benzofuran-3(2H)-one] |
| 11.5 µM | 9.5 µM | CC(=O)Nc1ccc2[nH]c(C)c(C=C3Oc4cc(O)cc(O)c4C3=O)c2c1 [Example 216, N-{3-[(4,6-dihydroxy-3-oxo-1-benzofuran-2(3H)-ylidene)methyl]-2-methyl-1H-indol-5-yl}acetamide] |
| 2.4 µM | 1.42 µM | Cc1[nH]c2c(Br)cccc2c1C=C1Oc2cc(O)cc(O)c2C1=O [Example 217, 2-[(7-bromo-2-methyl-1H-indol-3-yl)methylene]-4,6-dihydroxy-1-benzofuran-3(2H)-one] |
| 1.65 µM | 0.796 µM | Cc1[nH]c2ccc(F)cc2c1C=C1Oc2cc(O)cc(O)c2C1=O [Example 218, 2-[(5-fluoro-2-methyl-1H-indol-3-yl)methylene]-4,6-dihydroxy-1-benzofuran-3(2H)-one] |
| > 20 µM | 1 µM | COc1ccc2[nH]cc(C=C3Oc4cc(O)cc(O)c4C3=O)c2c1C [Example 219, 4,6-dihydroxy-2-[(5-methoxy-4-methyl-1H-indol-3-yl)methylene]-1-benzofuran-3(2H)-one] |
| 4.3 µM | 1.98 µM | N#Cc1cccc2[nH]cc(C=C3Oc4cc(O)cc(O)c4C3=O)c12 [Example 220, 3-[(4,6-dihydroxy-3-oxo-1-benzofuran-2(3H)-ylidene)methyl]-1H-indole-4-carbonitrile] |
| > 20 µM | 1.16 µM | O=C1C(=Cc2c[nH]c3cc(C(F)(F)F)ccc23)Oc2cc(O)cc(O)c21 [Example 221, 4,6-dihydroxy-2-{[6-(trifluoromethyl)-1H-indol-3-yl]methylene}-1-benzofuran-3(2H)-one] |
| 2.1 µM | 4.46 µM | COC(=O)c1cccc2[nH]cc(C=C3Oc4cc(O)cc(O)c4C3=O)c12 [Example 222, methyl 3-[(4,6-dihydroxy-3-oxo-1-benzofuran-2(3H)-ylidene)methyl]-1H-indole-4-carboxylate] |
| 0.85 µM | 2.04 µM | Cc1c(C=C2Oc3cc(O)cc(O)c3C2=O)c2cc(Cl)ccc2n1C [Example 233, 2-[(5-chloro-1,2-dimethyl-1H-indol-3-yl)methylene]-4,6-dihydroxy-1-benzofuran-3(2H)-one] |
| 14 µM | > 10 µM | Cc1c(C=C2Oc3cc(O)cc(O)c3C2=O)c2cccc(Br)c2n1C [Example 234, 2-[(7-bromo-1,2-dimethyl-1H-indol-3-yl)methylene]-4,6-dihydroxy-1-benzofuran-3(2H)-one] |

| IC50 (human TOR) | IC50 (PI3K-alpha) | SMILES |
| --- | --- | --- |
| 1.6 µM | 1.47 µM | COc1ccc2c(c(C=C3Oc4cc(O)cc(O)c4C3=O)cn2C)c1C [Example 236, 4,6-dihydroxy-2-[(5-methoxy-1,4-dimethyl-1H-indol-3-yl)methylene]-1-benzofuran-3(2H)-one] |
| > 20 µM | 2.48 µM | Cn1cc(C=C2Oc3cc(O)cc(O)c3C2=O)c2ccc(C(F)(F)F)cc21 [Example 237, 4,6-dihydroxy-2-{[1-methyl-6-(trifluoromethyl)-1H-indol-3-yl]methylene}-1-benzofuran-3(2H)-one] |
| 5.9 µM | 4.94 µM | COc1ccc2c(c(C=C3Oc4cc(O)cc(O)c4C3=O)cn2CCCC#N)c1C [Example 239, 4-{3-[(4,6-dihydroxy-3-oxo-1-benzofuran-2(3H)-ylidene)methyl]-5-methoxy-4-methyl-1H-indol-1-yl}butanenitrile] |
| 2.7 µM | 3.33 µM | Cc1c(C=C2Oc3cc(O)cc(O)c3C2=O)c2ccccc2n1CCCC#N [Example 240, 4-{3-[(4,6-dihydroxy-3-oxo-1-benzofuran-2(3H)-ylidene)methyl]-2-methyl-1H-indol-1-yl}butanenitrile] |
| > 20 µM | 4.71 µM | N#CCCCn1cc(C=C2Oc3cc(O)cc(O)c3C2=O)c2ccccc21 [Example 241, 4-{3-[(4,6-dihydroxy-3-oxo-1-benzofuran-2(3H)-ylidene)methyl]-1H-indol-1-yl}butanenitrile] |
| 0.48 µM | 1.05 µM | O=C1C(=Cc2c[nH]c3cccc(OCc4ccccc4)c23)Oc2cc(O)cc(O)c21 [Example 243, 2-{[4-(benzyloxy)-1H-indol-3-yl]methylene}-4,6-dihydroxy-1-benzofuran-3(2H)-one] |
| 18 µM | 1.96 µM | O=C1C(=Cc2c[nH]c3c(Br)cccc23)Oc2cc(O)cc(O)c21 [Example 244, 2-[(7-bromo-1H-indol-3-yl)methylene]-4,6-dihydroxy-1-benzofuran-3(2H)-one] |
| > 20 µM | 1.49 µM | COC(=O)c1cccc2c(C=C3Oc4cc(O)cc(O)c4C3=O)c[nH]c12 [Example 245, methyl 3-[(4,6-dihydroxy-3-oxo-1-benzofuran-2(3H)-ylidene)methyl]-1H-indole-7-carboxylate] |
| 2.9 µM | 3.15 µM | Cc1c(C=C2Oc3cc(O)cc(O)c3C2=O)c2ccccc2n1C [Example 247, 2-[(1,2-dimethyl-1H-indol-3-yl)methylene]-4,6-dihydroxy-1-benzofuran-3(2H)-one] |
| > 20 µM | 4.81 µM | Cn1cc(C=C2Oc3cc(O)cc(O)c3C2=O)c2cccc(Br)c21 [Example 249, 2-[(7-bromo-1-methyl-1H-indol-3-yl)methylene]-4,6-dihydroxy-1-benzofuran-3(2H)-one] |
| > 20 µM | 3.55 µM | COC(=O)c1cccc2c(C=C3Oc4cc(O)cc(O)c4C3=O)cn(C)c12 [Example 250, methyl 3-[(4,6-dihydroxy-3-oxo-1-benzofuran-2(3H)-ylidene)methyl]-1-methyl-1H-indole-7-carboxylate] |
| > 20 µM | 2.39 µM | COc1cccc2c(C=C3Oc4cc(O)cc(O)c4C3=O)cn(C)c12 [Example 251, 4,6-dihydroxy-2-[(7-methoxy-1-methyl-1H-indol-3-yl)methylene]-1-benzofuran-3(2H)-one] |
| 1.5 µM | 0.555 µM | Cn1cc(C=C2Oc3cc(O)cc(O)c3C2=O)c2c(Cl)cccc21 [Example 252, 2-[(4-chloro-1-methyl-1H-indol-3-yl)methylene]-4,6-dihydroxy-1-benzofuran-3(2H)-one] |
| 3.3 µM | 1.43 µM | Cn1cc(C=C2Oc3cc(O)cc(O)c3C2=O)c2c(Br)cccc21 [Example 253, 2-[(4-bromo-1-methyl-1H-indol-3-yl)methylene]-4,6-dihydroxy-1-benzofuran-3(2H)-one] |
| 0.65 µM | 1.66 µM | Cn1cc(C=C2Oc3cc(O)cc(O)c3C2=O)c2c(O)cccc21 [Example 254, 4,6-dihydroxy-2-[(4-hydroxy-1-methyl-1H-indol-3-yl)methylene]-1-benzofuran-3(2H)-one] |
| 0.3 µM | 2.46 µM | COc1cccc2c1c(C=C1Oc3cc(O)cc(O)c3C1=O)cn2C [Example 255, 4,6-dihydroxy-2-[(4-methoxy-1-methyl-1H-indol-3-yl)methylene]-1-benzofuran-3(2H)-one] |
| 0.28 µM | > 10 µM | Cn1cc(C=C2Oc3cc(O)cc(O)c3C2=O)c2c(OCc3ccccc3)cccc21 [Example 256, 2-{[4-(benzyloxy)-1-methyl-1H-indol-3-yl]methylene}-4,6-dihydroxy-1-benzofuran-3(2H)-one] |
| 4.5 µM | 1.67 µM | Cn1c(-c2ccc(OCc3ccccc3)cc2)c(C=C2Oc3cc(O)cc(O)c3C2=O)c2ccccc21 [Example 260, 2-({2-[4-(benzyloxy)phenyl]-1-methyl-1H-indol-3-yl}methylene)-4,6-dihydroxy-1-benzofuran-3(2H)-one] |
